Reference: US20060166892A1, “Treatment of cell proliferative disorders with chlorotoxin” (priority 2002, published 2006)
Where two headings read alike, the source gives them in different places. Ends that are not written are not given here. * marks the point of attachment. Biotin = O=C1N[C@H]2[C@H](CS[C@H]2CCCCC(=O)*)N1

Experiments:
[1] = test system: PC3 prostate cancer cells; assay: Binding of biotinylated peptides to PC3 cells, HRP-avidin detection; design: species or system human; settings: chlorotoxin binding assay, FIG. 11
Method: To identify core binding site sequences of chlorotoxin, twenty-seven overlapping 10-mers derived from SEQ 1) NO: 1 were synthesized, starting from the C-terminus of the peptide as indicated in FIG. 7.
Binding of the 10-mer peptides to PC3 prostate cancer cells in vitro was measured by incubating cultured PC3 cells with individual peptides. Binding was detected and quantified by incubating the peptide exposed cells with HRP-avidin using a commercial kit according to manufacturer's instructions.
(SEQ ID NO: 10) sequentially as depicted in Table 5.
In order to compare binding of the short scorpion toxins, the regions homologous to peptide 21 of small toxin and probable toxin LQH-8/6 were synthesized and biotinylated for analysis in the chlorotoxin binding assay. (See Table 6 for amino acid sequences of the peptides).

D54MG Glioblastoma cells = settings: 24 h
Method: The purpose of this experiment was to determine if the proliferation D54MG Glioblastoma cells, as measured by ^3H-thymidine uptake, is effected by Peptide 21, a segment of the full chlorotoxin sequence. The sequence of peptide 21 and its relation to chlorotoxin is shown in the sequence below:
D54MG cells were plated in a 24 well plate at 100,000 cells/ml/well using five rows of four wells for each concentration. The cells were allowed to adhere in normal media for twenty-four hours at 37° C. and 5% carbon dioxide. TM-701 was diluted to a […] stock solution and added to each row at the concentrations of 0, 20, 80, 160 and 320 nM.
The cells and peptide 21 were allowed to incubate for 24 hours at 37° C. and 5% carbon dioxide. After twenty-four hours, the cells were rinsed two times with warm PBS. Normal media was added back to the cells at 1 ml/well. One μCi of ^3H-thymidine was added to each well (1 μl of 1 mCi/ml ^3H-thymidine to each well). The plate was incubated for two hours at 37° C. The media and thymidine were removed and the wells were rinsed with ice-cold phosphate-buffered saline three times. To each well was added 1 ml of 0.3 N NaOH. The plate was incubated in the 37° C. incubator for thirty minutes. Each well of 0.3 N NaOH was pipetted up and down three to four times and removed from the plate and the solution was placed in scintillation vials for counting. Scintillation fluid at four times the amount of sample was added to the vials (4 ml). Each vial was counted on the scintillation counter for one minute.

Substance: Biotin-TTDHQMARKS [peptide 21]
- binding in PC3 human prostate cancer cells [1]: 232.50 % of background levels
- uptake of 3H-thymidine, trend over 20 to 320 nM (D54MG Glioblastoma cells; FIG. 12): decreases in a does-dependent manner
- 3H-Thymidine uptake ± SD (D54MG Glioblastoma cells; peptide 21 at 20 nM): 7795 ± 634 CPM
- 3H-Thymidine uptake ± SD (D54MG Glioblastoma cells; peptide 21 at 80 nM): 7412 ± 630 CPM
- 3H-Thymidine uptake ± SD (D54MG Glioblastoma cells; peptide 21 at 160 nM): 6983 ± 329 CPM
- 3H-Thymidine uptake ± SD (D54MG Glioblastoma cells; peptide 21 at 320 nM): 5782 ± 886 CPM

Substance: TTDPQMSKK [21ST, region of small toxin homologous to peptide 21, synthesized and biotinylated]
- binding in PC3 human prostate cancer cells [1]: 225.26 % of background levels

Substance: TTDQQMTKK [21LQ, region of probable toxin LQH-8/6 homologous to peptide 21, synthesized and biotinylated]
- binding in PC3 human prostate cancer cells [1]: 242.32 % of background levels

Substance: negative peptide (GKCYGPQCLC; Chlorotoxin; listed as Leiurus quinquestriatus) [reference compound]
- binding in PC3 human prostate cancer cells [1]: 110 % of background levels
